Measured values: paper PMC8302598, “Rapid discovery of self-assembling peptides with one-bead one-compound peptide library” (Nature Communications, 2021)
Entries after “also recorded” stand apart in the source; their conditions may differ.

Assays:
Format in all cases: physicochemical
[1] = Fluorescent-activation screening assay on OBOC beads (NBD); settings: for Fluorescence (beads): peptide N-terminally capped with NBD on TentaGel S beads, in water, fluorescence microscope; for Bead fluorescence in methanol: NBD N-capped peptide on TentaGel S beads, 20 min
From the text: It is well known that Aβ16–20 peptide sequence KLVFF can self-assemble into nanofibers in water. We, therefore, chose it as a model peptide to test our screening strategy and used KAAGG as the non-assembling negative control. These control peptides, N-terminally capped with NBD were synthesized with standard Fmoc-chemistry, and TentaGel S resin beads as solid support but without any cleavable linker. After side-chain deprotection, the beads were thoroughly washed with DMF, which was replaced stepwise with water or methanol and then examined under a fluorescent microscope. […] This is expected as the hydrophobicity-sensitive fluorescence dye NBD would fluoresce brightly under hydrophobic condition, in this case, methanol. In water, we expect fluorescent signal emitted from non-sequestered NBD to diminish, unless it is buried inside a hydrophobic environment such as within peptide aggregates or β-sheets formed by KLVFF peptides.
(§1) Once the screening method has been validated with our model KLVFF peptide, a totally random pentapeptide library with 19[5] permutations (cysteine was omitted from the library) was constructed using our previously published methods (Supplementary Fig. 3)[23]. Again, TentaGel S resin (loading of 0.31 mmol/g) was used as the solid support. The pentapeptides in the library were N-terminally capped with NBD. […] The positive bead with an intense fluorescent signal (pointed with a solid arrow) was noted. The rest of the beads were considered negative or weak positive beads. From a total of approximately 100 000 beads screened, we selected a total of eight strongest fluorescent positive beads and four dark beads as negative beads. The peptides were then resynthesized in soluble form and purified by high-performance liquid chromatography (HPLC) for testing (Supplementary Figs. 4–12). The amino acid sequences of the eight self-assembling pentapeptides are FTISD, ITSVV, YFTEF, ISDNL, LDFPI, FAGFT, FGFDP, and FFVDF. Not unexpectedly, of the 40 amino acids in these eight pentapeptides, 50% are hydrophobic residues, predominated by Phe (11 Phe, 4 Ile, 3 Val, and 2 Leu). For the remaining 20 amino acids, six are acidic residues (5 Asp and 1 Glu) and seven are neutral and hydrophilic (4 Thr and 3 Ser). The rest are 2 Pro, 2 Gly, 1 Tyr, 1 Asn, and 1 Ala. All eight peptides have at least two hydrophobic residues. Six out of the eight peptides have one negatively charged residue (Asp or Glu). The remaining two peptides are neutral. […] For the Pro containing pentapeptides, LDFPI and FGFDP, the Pro residue, which promotes peptide turns, resides at the fourth and fifth positions, but not in the middle. Not unexpectedly, all the four randomly selected negative non-assembling peptides (RITTR, PLVKA, PFTTR, and QIMRW) have very different sequences, and contain at least one positive charged amino acid.
The OBOC pentapeptide libraries (19[5]) were built using Fmoc strategy SPPS (solid-phase peptide synthesis) (Supplementary Fig. 3). TentaGel S Resin (named N-beads with loading 0.31 mmol/g) was used as the solid phase support. The pentapeptide sequence of X1 X2 X3 X4 X5 was constructed in the library, in which X1−X5 represents either Ala, Asp, Glu, Phe, Gly, His, Ile, Lys, Leu, Met, Asn, Pro, Gln, Arg, Ser, Thr, Val, Trp, and Tyr residues. During the synthesis of OBOC library, solid support beads were mixed and split equally in each cycle, then different amino acids were added, separately, the process was repeated four times. The synthesis of peptides was used anhydrous DMF as solvent. The Fmoc group was removed by 20% (v/v) piperidine in DMF and the deprotection time was 10 min twice. During the coupling step, the HBTU (4 mM) and Fmoc-amino acid (4 mM) were dissolved in DMF containing NMM (0.4 mM). The coupling time was 50 min. Qualitative Fmoc deprotection and coupling were confirmed by ninhydrin test. All the above experiments were carried out in the solid phase peptide synthesis vessels with sieves in it. […]

[2] = as above; settings: peptide beads incubated with free dye in water for 2 hours
[3] = Self-assembly of resynthesized soluble pentapeptides; settings: self-assembly under aqueous environment
From the text: as §1
To estimate the propensity of the identified peptides to self-assemble, the critical micelle concentrations (CMC) of the eight positive peptides and four negative peptides were determined, and the results are shown in Table 1 and Supplementary Figs. 13, 14. The CMC of all the eight positive peptides were detectable and found to range between 8.4 and 14.8 μM, indicating the propensity for these peptides to self-assemble under aqueous environment. […] Hydrophobicity of peptides can be predicted by the value of GRAVY[28] with more negative value for more hydrophilic peptides. Of the four negative assembling peptides, two have a negative GRAVY value. […] Experimental testing, such as the screening strategy described in this work, is needed. This is because multiple factors, including hydrophobicity, hydrogen-bonding, electrostatic interactions, and positions of each residue within the peptides, all contribute to the assembling and final morphology of the self-assembled nano-structure. […]

[4] = TEM morphology and size of peptide nano-assemblies over time; settings: same peptide preparation in water with 1% DMSO
From the text: Self-assembling peptides with good biocompatibility may be used to construct nanocarriers for drug delivery. We recently reported the use of FFVLK, the reverse sequence of KLVFF, as a self-aggregating β-sheet forming domain for the delivery of HER2 targeting peptides for successful treatment of breast cancer in xenograft models. Such FFVLK containing peptide is able to self-assemble into nanoparticles. Upon intravenous administration, the FFVLK-nanoparticle was able to transform into nanofibrillar network when encountering HER2 at the tumor sites. To investigate the morphology of the nano-assembly formed by the eight self-assembling peptides, we dissolved each of these peptides in DMSO (5 mM) and then diluted them 100X with water at a final peptide concentration of 50 μM to induce spontaneous self-assembly. Each sample was fixed immediately after peptide solution preparation and at 4 h time point for subsequent TEM processing and analysis. As clearly shown in Fig. 4a, all eight self-assembling peptides initially formed some nanostructures: nanoparticles for ITSVV, YFTEF, ISDNL, LDFPI, FAGFT, FGFDP, and FTISD; nanofibers for FFVDF. […] LDFPI (8 nm) maintained the particulate morphology without changing of diameter in 4 h. FFVDF formed nanofibers at 0 and 4 h. […] Time-dependent size variations of pentapeptides in water were further confirmed by DLS spectra (Supplementary Fig. 18). The initial diameters of nanoparticles formed by seven pentapeptides were larger than that observed by TEM, probably due to hydration radius. The size of the nanostructure increased over time, correlating well with the morphologic transformation. […] Circular dichroism (CD) was used to monitor the secondary structures of the nano-assembly of the eight self-assembling peptides over time (Supplementary Fig. 20).
(§2) Pentapeptides monomers were dissolved in DMSO at a concentration of 5.0 mM, followed by quick injection into water at a volume ratio of 1:99 for DMSO and H2O to obtain the nanomaterials solution (50 μM). For 30 mM pentapeptide solution, the pentapeptide was dissolved in water and sonicated for 3 min.
(§3) The pentapeptide solution with the concentration of 20 μM (10 μL) was placed dropwise onto a copper mesh for 5 min, then most of the liquid was removed through a filter paper. Ten microliters of uranyl acetate solution were employed to stain the samples for 5 min, followed by drying the spare liquid with the filter. Finally, the copper mesh was washed with 10 μL of deionized water, which was blotted after staining and drying at room temperature. All of the samples were observed by TEM (Tecnai G2 20 S-TWIN) at an accelerating voltage of 200 kV.

[5] = Appearance and TEM of 30 mM peptide in water
Description: To further characterize these self-assembling peptides, we selected two positive peptides (FFVDF and YFTEF) and a negative control peptide (PFTTR) for the following studies: Fourier transform infrared (FT-IR) spectroscopy, UV−Vis spectra, and transmission electron microscopy (TEM).
as §2, §3

[6] = Turbidity test (transmittance spectra); settings: 20 μM peptide in water
Description: To further confirm the peptide assembling in water, the solutions of pentapeptide were diluted to 20 μM for turbidity test.

Substance	Fluorescence (beads) [1]	Assembly [3]	Nanostructures detected by TEM (negative controls) [4]	further results
(NBD)-NFGAIL-beads [additional positive control NFGAIL N-capped with NBD on beads, reference compound]	fluorescence-on	–	–	–
KAAGG-beads [negative control peptide KAAGG on beads, probed with free reporter dye]	–	–	–	Bead fluorescence with free dye (ThT, Nile Red or NBD) [2]: fluorescent off
(NBD)-LIVGD-beads [additional positive control LIVGD N-capped with NBD on beads, reference compound]	fluorescence-on	–	–	–
RITWI [randomly selected negative non-assembling pentapeptide]	Off	No	no nanostructures were detected	–
PLVKA [randomly selected negative non-assembling pentapeptide]	Off	No	no nanostructures were detected	–
QIMRW [randomly selected negative non-assembling pentapeptide]	Off	No	no nanostructures were detected	–
(NBD)-KAAGG-beads [non-assembling negative control KAAGG N-terminally capped with NBD on TentaGel S resin beads, reference compound]	did not	–	–	Bead fluorescence in methanol [1]: bright fluorescence
PFTTR [randomly selected negative non-assembling pentapeptide]	Off	No	no nanostructures were detected	Nanostructure under TEM ([5]; 30 mM in H2O): no nanostructures observed; Appearance of peptide in water ([5]; 30 mM in water, sonicated 3 min): completely clear solution; Transmittance at 400 nm [6]: 100%
(NBD)-KLVFF-beads [positive control: Aβ16–20 peptide KLVFF N-terminally capped with NBD on TentaGel S resin beads, reference compound]	fluoresced brightly; also recorded: fluorescence-on	–	–	Bead fluorescence in methanol [1]: bright fluorescence
